Reference: patent publication US20240092835A1, “NOVEL PEPTIDES CAPABLE OF ALTERING NK CELL ACTIVITY” (Massachusetts Institute of Technology, priority 2022, published 2024)
Where no end group is shown, it is not given here.

How the values were obtained:
[1] = tested on: NKG2A−/NKG2C+ NK cells; assay: NKG2A-/NKG2C+ NK cell activation with peptide and RMA-S cells expressing HLA-E; format: cell-based; conditions: RMA-S cells expressing HLA-E
Procedure: An antigen processing-defective lymphoma cell line (RMA-S), with a low-level expression of HLA-E, were incubated with the novel peptides to determine the inhibitory strength on NKG2A−/NKG2C+NK cells relative to positive control sequences with differential effects ([…] (SEQ ID NO: 19)/VMAPRTLFL (SEQ ID NO: 18)). The effects of the peptides on NK cell inhibition were determined by measuring four markers of NK cell activation (CD107a, IFNG, TNF, CCL3) in NKG2A−/NKG2C+NK cells (FIGS. 2A-2D). Activation was indicated by an increase in percent cells positive for cell surface markers.

[2] = tested on: NKG2A+/NKG2C− NK cells; assay: NK cell activation markers in NKG2A+/NKG2C- NK cells incubated with peptide and K562 expressing HLA-E (inhibition); format: cell-based, human; conditions: for effect on NKG2A+/NKG2C− NK cell inhibition (in words): K562 expressing HLA-E, CD107a, IFNG, TNF, CCL3; for percentage of CCL3+ NK cells / percentage of CD107a+ NK cells / percentage of IFNG+ NK cells / percentage of TNF+ NK cells: NKG2A+/NKG2C- NK cells, K562/HLA-E
In short: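 Percent-positive cells for NK activation surface markers were measured after NK cells met peptide-treated K562 cells expressing HLA-E. A decrease in that fraction was scored as inhibition and an increase as activation; NKG2A−/NKG2C− cells served as controls.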

| Sequence | percentage of CCL3+ NK cells ([2]; Trial 1) | percentage of CD107a+ NK cells ([2]; Trial 1) | percentage of IFNG+ NK cells ([2]; Trial 1) | percentage of TNF+ NK cells ([2]; Trial 1) | percentage of CCL3+ NK cells ([2]; Trial 2) | percentage of CD107a+ NK cells ([2]; Trial 2) | percentage of IFNG+ NK cells ([2]; Trial 2) | percentage of TNF+ NK cells ([2]; Trial 2) | percentage of CCL3+ NK cells ([2]; Trial 3) | percentage of CD107a+ NK cells ([2]; Trial 3) | percentage of IFNG+ NK cells ([2]; Trial 3) | percentage of TNF+ NK cells ([2]; Trial 3) | percentage of CCL3+ NK cells ([2]; Trial 4) | percentage of CD107a+ NK cells ([2]; Trial 4) | percentage of IFNG+ NK cells ([2]; Trial 4) | percentage of TNF+ NK cells ([2]; Trial 4) | percentage of CCL3+ NK cells ([2]; Trial 5) | percentage of CD107a+ NK cells ([2]; Trial 5) | percentage of IFNG+ NK cells ([2]; Trial 5) | percentage of TNF+ NK cells ([2]; Trial 5) | also measured |
| --- | --- | --- | --- | --- | --- | --- | --- | --- | --- | --- | --- | --- | --- | --- | --- | --- | --- | --- | --- | --- | --- |
| VNPGRSLFL [human5, VNPGRSLFL] | 51.6% | 36.8% | 16.9% | 7.26% | 71.6% | 48.4% | 28.8% | 14.6% | 55.3% | 43.1% | 30.8% | 19.4% | 40.9% | 33.4% | 17.9% | 10.7% | 44.2% | 30.4% | 16.5% | 7.74% | NKG2A−/NKG2C+ NK cell activation relative to positive control peptides (in words) ([1]; listed as SEQ ID NO. 3): strongest activation of NK cells, comparable with the positive control peptides for several markers assessed; NKG2A−/NKG2C+ NK cell activation relative to positive control peptides (in words) ([1]; listed as h5): strongest NK cell activation, comparable with the positive control peptides for several markers assessed; effect on NKG2A+/NKG2C− NK cell inhibition (in words) ([2]; listed as SEQ ID NO. 3): no or minimal effect; effect on NKG2A+/NKG2C− NK cell inhibition (in words) ([2]; listed as h5): no effect; percentage of CCL3+ NK cells ([2]; Trial 6): 33.1%; percentage of CD107a+ NK cells ([2]; Trial 6): 26%; percentage of IFNG+ NK cells ([2]; Trial 6): 10.5%; percentage of TNF+ NK cells ([2]; Trial 6): 6.36% |
| TAPARTMFL [human13, TAPARTMFL] | 52.5% | 31.2% | 13% | 3.99% | 75.9% | 50.6% | 30.8% | 13.8% | 52.6% | 44.4% | 31.7% | 17% | 47.3% | 37.6% | 21.7% | 12.6% | 48.9% | 32.2% | 16.9% | 7.45% | increase in CCL3+ NK cells (in words) ([1]; NKG2A−/NKG2C+ NK cells): slight increases; increase in CD107a+ NK cells (in words) ([1]; NKG2A−/NKG2C+ NK cells): slight increases; increase in IFNG+ NK cells (in words) ([1]; NKG2A−/NKG2C+ NK cells): no increase; increase in TNF+ NK cells (in words) ([1]; NKG2A−/NKG2C+ NK cells): no increase; effect on NKG2A+/NKG2C− NK cell inhibition (in words) ([2]; listed as SEQ ID NO. 5): no or minimal effect; effect on NKG2A+/NKG2C− NK cell inhibition (in words) ([2]; listed as h13): no effect; percentage of CCL3+ NK cells ([2]; Trial 6): 39.3%; percentage of CD107a+ NK cells ([2]; Trial 6): 28.2%; percentage of IFNG+ NK cells ([2]; Trial 6): 8.81%; percentage of TNF+ NK cells ([2]; Trial 6): 5.68% |
| TLPKRGLFL [human2, TLPKRGLFL] | 17.5% | 10.8% | 2.35% | 0.83% | 34.9% | 13% | 2.85% | 1.25% | 17.3% | 16.7% | 7.56% | 3.94% | 13.3% | 15.1% | 2.41% | 1.74% | 29.3% | 14.4% | 5.78% | 2.47% | effect on NKG2A+/NKG2C− NK cell inhibition (in words) [2]: mild inhibitory effects; percentage of CCL3+ NK cells ([2]; Trial 6): 16.2%; percentage of CD107a+ NK cells ([2]; Trial 6): 14%; percentage of IFNG+ NK cells ([2]; Trial 6): 3.48%; percentage of TNF+ NK cells ([2]; Trial 6): 2.18% |
